Data from patent publication US20220315895A1, “METHODS OF MAKING OLIGOPOTENT AND UNIPOTENT PRECURSORS” (Transfusion Health, LLC, priority 2019, published 2022).

Columns and labels:
Assay type in all cases: cell-based, human
[1] = system: expanded cord blood CD34+ cells, megakaryocyte lineage (CD41, CD42b); test: Megakaryocyte Differentiation Culture after Expansion Culture (Example 38)
Description: (§1) At days 21 and 63, CD34+ enriched cells were placed into Differentiation Cultures, described below.
(§2) Differentiation cultures were initiated using Erythroid, Myeloid (granulocyte and monocyte), and Megakaryocyte HemaTox kits from STEMCELL technologies following the manufacturer's instructions. In brief, lineage media was prepared by adding cytokine cocktails for erythrocyte (SCF, IL-3, and EPO), myeloid (i.e. mixed granulocyte/monocyte, SCF, TPO, G-CSF, and GM-CSF) or megakaryocyte (SCF, IL-6, IL-9 and TPO) lineage differentiation to their respective kits' media, then adding approximately 30-100 CD34+ cells for erythroid or myeloid cultures, or 300-1000 CD34+ cells for megakaryoid cultures. Exact cell numbers plated were quantified for later analysis. All incubations for Differentiation Culture took place at 3% oxygen (controlled by nitrogen) and 5% CO2.
(§3) Following seven days of erythroid or myeloid cultures, or ten days for megakaryoid cultures, differentiated cell output was quantified using flow cytometry. Erythroid output was quantified using anti-CD71 and anti-CD235a antibodies, and megakaryocyte lineage output was quantified using anti-CD41 and anti-CD42b antibodies. Granulocyte and monocyte lineage outputs were assessed in tandem, using CD14 and CD15 antibodies, with granulocyte lineage cells being CD15+/CD14−, and monocyte lineage cells being CD14+/CD15−.
A number of quantities were calculated to assess the effect of expansion of CD34+ cells in the +Formula I Condition on the output of lineage differentiated cells. “Per-Assayed-CD34+ Cell Output” describes the output of differentiated cells per CD34+ cell placed into Differentiation Culture, and is calculated by dividing the total number of lineage-positive cells by the input CD34+ cell number quantified at Differentiation Culture initiation at day 1, 21, or 63. […]

[2] = system: expanded cord blood CD34+ cells, erythroid lineage (CD71, CD235a); test: Erythroid Differentiation Culture after Expansion Culture (Example 38); settings: for cells with markers of erythrocyte differentiation (CD71 and/or CD235a), of total cells: seven days Erythroid Differentiation Culture; for cells with markers of erythrocyte differentiation (CD71 and/or CD235a), of total cells / cells positive for CD235a (maturing erythrocyte differentiation): average
Description: as §1, §2, §3
A number of quantities were calculated to assess the effect of expansion of CD34+ cells in the +Formula I Condition on the output of lineage differentiated cells. “Per-Assayed-CD34+ Cell Output” describes the output of differentiated cells per CD34+ cell placed into Differentiation Culture, and is calculated by dividing the total number of lineage-positive cells by the input CD34+ cell number quantified at Differentiation Culture initiation at day 1, 21, or 63. “Per-expanded-day-1-CD34+ cell output” describes the number of differentiated cells of a given lineage that may be produced from a single CD34+ cell following both Expansion Cell Culture (if expanded) followed by Differentiation Culture, and is calculated by multiplying Per-Assayed-CD34+ Cell Output by the fold expansion of CD34+ cells from day 1 to the day of analysis, either day 21 or day 63. “Per-banked-CBU lineage output” describes the number of differentiated cells of a given lineage that may be produced using the CD34+ cells from a full cord blood unit, and is calculated by multiplying the per-expanded-day-1-CD34+ cell output by 2×10^6, a conservative estimate the number of CD34+ cells in an average cord held in a public cord blood bank (Sun, J., Allison, J., McLaughlin, C., Sledge, L., Waters-Pick, B., Wease, S., and Kurtzberg, J. (2010). Differences in quality between privately and publicly banked umbilical cord blood units: a pilot study of autologous cord blood infusion in children with acquired neurologic disorders. Transfusion (Paris) 50, 1980-1987). This per-banked-CBU lineage output provides the ability to gauge the number of therapeutic units that may be derived from a single cord blood unit available as input to the manufacturing of a therapeutic product, and enables comparison to current state-of-the-art methods. Where relevant therapeutic dose benchmarks were available, this per-banked-CBU lineage output was used to calculate the number of therapeutic units that may be prepared from a single banked CBU unit. We calculated therapeutic units for granulocyte precursors, using 50 billion (5×10^10) cells per dose as a conservative benchmark (Valentini, C. G., Farina, F., Pagano, L., and Teofili, L. (2017). Granulocyte Transfusions: A Critical Reappraisal. Biol. Blood Marrow Transplant. 23, 2034-2041). […]

CD15+/CD14− cells = test: Phagocytosis assay with pHrodo green Staphylococcus aureus Bioparticles (Example 39); settings: +Formula I Granulocyte Differentiation Cultures, day 13; 45 minutes at 37° C.
Description: On day 13 of Granulocyte Differentiation Culture, a portion of the culture was removed for in vitro analysis of granulocyte function through two separate assays for phagocytosis and respiratory burst. In the phagocytosis assay, the function of the cultured cells in ingesting bacteria was measured. pHrodo green Staphylococcus aureus Bioparticles (ThermoFisher), which fluoresce only when in an acidic environment such as a cellular phagosome following phagocytosis, were first treated with an opsonizing reagent to mark the particles for phagocytosis. The particles were then added to cells and incubated at 37° C. for 45 minutes. “Ice” control samples were incubated on ice during this period to prevent endocytosis and enable a measure of background fluorescence. Following this incubation, cells were stained with antibodies to CD15 and CD14, washed thoroughly, then analyzed via flow cytometry on an Attune flow cytometer. CD15+/CD14− cells were quantified for presence of phagocytosed particles.

CC(C)(C)C(=O)Nc1ccc2c(c1)C(O)c1ccccc1-2 (centres unmarked) [Compound 1.010]
fold increase of per-expanded-day-1-CD34+ cell output, total megakaryocyte lineage, over uncultured cells ([1]; +Formula I expansion to day 21, then 10 days differentiation): 18 fold | fold increase of per-expanded-day-1-CD34+ cell output, total megakaryocyte lineage, over uncultured cells ([1]; +Formula I expansion to day 63, then 10 days differentiation): 3,400 fold | CD42b+ cells of CD41+ cells ([1]; Formula I-expanded, either 21 or 63 days of prior Expansion Cell Culture, Megakaryocyte Differentiation Culture): approximately 50% | fold increase of per-expanded-day-1-CD34+ cell output, erythroid lineage, over uncultured cells ([2]; +Formula I expansion (Compound 1.010 8 μM) to day 21, then 7 days differentiation): 301 fold | fold increase of per-expanded-day-1-CD34+ cell output, erythroid lineage, over uncultured cells ([2]; +Formula I expansion to day 63, then 7 days differentiation): 91,000 fold | CD71−/CD235a+ cells (mature erythrocytes) ([2]; expanded 21 or 63 days in Formula I condition, day seven of Erythroid Differentiation Culture): No CD71−/CD235a+ cells were detected | cells with markers of erythrocyte differentiation (CD71 and/or CD235a), of total cells ([2]; expanded 21 days in Formula I Condition): 50% | cells positive for CD235a (maturing erythrocyte differentiation) ([2]; expanded 21 days in Formula I condition, day seven of Erythroid Differentiation Culture): 46% | cells with markers of erythrocyte differentiation (CD71 and/or CD235a), of total cells ([2]; expanded 63 days in Formula I Condition): 75% | cells positive for CD235a (maturing erythrocyte differentiation) ([2]; expanded 63 days in Formula I condition, day seven of Erythroid Differentiation Culture): 86% | CD15+ cells positive for phagocytosed particles (CD15+/CD14− cells): 89%
